Source: patent US10259807B2, “1-(piperazin-1-yl)-2-([1,2,4]triazol-1-yl)-ethanone derivatives” (Idorsia Pharmaceuticals Ltd., priority 2013, dated 2019)

Experiments:
hERG K channel = biological target: T1, hERG K channel (Homo sapiens, UniProt Q12809); experiment: hERG Q-Patch assay; type: cell-based; settings: CHO cells expressing hERG, K+ tail current 3 min after application, mean of two or three experiments
T1 construct: host or cells: CHO
Procedure: B) hERG Q-Patch assay: Compounds are evaluated for block of the hERG K channel using CHO cells stably expressing the hERG gene (accession number U04270, bSys, Witterswil. Switzerland) and the Patch robotic platform (Sophion, Ballerup, Denmark) in single-cell mode at room temperature. […] When the cells are ˜80% confluent (every 2-3 days), they are either split for further culture or used for electrophysiology. […] Cells are kept in suspension medium at 32-35° C. in the QPatch robot until use, at which time aliquots are transferred to the extracellular solution (in mM: NaCl 150; KCl 4; CaCl2 1.2; MgCl2 1; HEPES 10; pH 7.4 with NaOH) containing 0.3% v/v DMSO and applied to the test plates. K^+ currents are measured with the patch-voltage-clamp technique in the whole-cell configuration with the internal solution (in […]: KCl, 140; NaCl, 10; MgCl2, 1; HEPES, 10; EGTA, 5; pH=7.2 with KOH). […] K^+tail currents are produced from a holding voltage of −80 mV by a 500-ms depolarization to +20 mV followed by a 500-ms repolarization to −40 mV; tail current amplitudes are measured at the end of the repolarization to −40 mV. The pulse pattern is repeated every 10 sec during the experiment, baseline K^+ current is measured after 3 min in extracellular solution, test-solution containing compound is then applied, and K^+ current in presence of compound is measured 3 minutes after application to the cells.

human CXCR3A = biological target: T2, human CXCR3A (Homo sapiens, UniProt P49682); experiment: FLIPR assay (CXCL10-induced calcium signal in CHO-K1 cells); type: cell-based; settings: CHO-K1 cells expressing human CXCR3A coupled to Galpha(16); CXCL10 agonist 20 nM; mean values
T2 construct: expressed in transfected cells; host or cells: CHO-K1
T2 sequence (P49682 1-368): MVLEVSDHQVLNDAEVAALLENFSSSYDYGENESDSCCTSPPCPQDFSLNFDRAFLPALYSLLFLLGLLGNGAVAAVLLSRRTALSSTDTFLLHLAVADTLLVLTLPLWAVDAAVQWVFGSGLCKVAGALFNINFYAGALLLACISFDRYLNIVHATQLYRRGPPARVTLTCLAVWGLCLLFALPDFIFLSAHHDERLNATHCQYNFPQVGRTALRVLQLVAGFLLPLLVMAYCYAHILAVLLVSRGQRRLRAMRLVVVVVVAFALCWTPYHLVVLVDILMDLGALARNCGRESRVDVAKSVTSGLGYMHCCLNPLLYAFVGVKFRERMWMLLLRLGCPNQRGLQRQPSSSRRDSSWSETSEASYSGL
Procedure: A) FLIPR assay: The bioactivity of compounds is tested in a fluorometric imaging plate reader (FLIPR: Molecular Devices) using engineered CHO-K1 cells expressing the human CXCR3A (GenBank: AY242128) coupled to a G protein (Galpha(16)). Cells are plated the day prior to bioassay in F12 medium supplemented with 10% FBS and G418 and hygromycin antibiotics to maintain recombinant selection. […] Cells are washed free of excess dye and 60 microliter of wash buffer is added. Stock solutions of test compounds are made up at a concentration of 10 mM in DMSO, and serially diluted in dilution buffer to concentrations required for inhibition dose response curves. After a 10 minute incubation period at 37° C., 10 microliters of each compound dilution are transferred from a compound plate to the plate containing the recombinant cells in the FLIPR instrument according to the manufacturer's instructions. Following basal readings, 10 microliter CXCL10 agonist at a concentration of 20 nM (from Peprotech) is added, again using the FLIPR instrument. Changes in fluorescence are monitored before and after addition of the test compounds. Emission peak values above base level after CXCL10 addition are exported after base line subtraction. The program XLfit is used to fit the data to a single site dose response curve and to calculate IC50 values. The calculated IC50 values may fluctuate depending on the daily assay performance. Fluctuations of this kind are known to those skilled in the art.

T1 sequence (Q12809 whole entry): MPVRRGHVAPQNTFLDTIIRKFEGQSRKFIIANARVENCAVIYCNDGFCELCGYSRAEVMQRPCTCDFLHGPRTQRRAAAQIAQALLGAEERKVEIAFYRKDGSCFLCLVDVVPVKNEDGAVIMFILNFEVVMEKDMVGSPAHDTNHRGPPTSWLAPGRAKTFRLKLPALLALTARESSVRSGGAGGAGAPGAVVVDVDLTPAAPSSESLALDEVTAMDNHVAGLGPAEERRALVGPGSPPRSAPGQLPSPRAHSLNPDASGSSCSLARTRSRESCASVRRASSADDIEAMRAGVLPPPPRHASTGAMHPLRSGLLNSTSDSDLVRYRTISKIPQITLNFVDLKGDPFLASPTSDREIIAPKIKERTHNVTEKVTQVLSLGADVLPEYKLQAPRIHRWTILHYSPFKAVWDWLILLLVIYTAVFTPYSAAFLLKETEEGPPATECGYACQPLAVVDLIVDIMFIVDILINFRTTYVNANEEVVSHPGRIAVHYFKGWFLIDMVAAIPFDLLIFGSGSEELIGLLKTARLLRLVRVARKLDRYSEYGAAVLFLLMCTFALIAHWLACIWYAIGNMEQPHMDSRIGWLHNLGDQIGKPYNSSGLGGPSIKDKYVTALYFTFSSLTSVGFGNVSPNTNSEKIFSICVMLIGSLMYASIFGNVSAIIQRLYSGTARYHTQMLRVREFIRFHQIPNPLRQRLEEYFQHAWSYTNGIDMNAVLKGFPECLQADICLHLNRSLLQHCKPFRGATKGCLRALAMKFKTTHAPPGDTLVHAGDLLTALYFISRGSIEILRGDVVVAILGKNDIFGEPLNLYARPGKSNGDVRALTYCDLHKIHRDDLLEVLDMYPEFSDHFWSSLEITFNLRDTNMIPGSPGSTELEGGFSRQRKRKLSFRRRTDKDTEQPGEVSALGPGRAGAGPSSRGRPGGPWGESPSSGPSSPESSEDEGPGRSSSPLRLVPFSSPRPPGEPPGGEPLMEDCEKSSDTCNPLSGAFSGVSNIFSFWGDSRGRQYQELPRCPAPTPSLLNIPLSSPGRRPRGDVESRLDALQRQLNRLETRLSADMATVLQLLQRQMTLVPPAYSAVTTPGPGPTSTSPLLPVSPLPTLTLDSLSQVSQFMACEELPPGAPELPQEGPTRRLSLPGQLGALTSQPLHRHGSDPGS

| SMILES | % block (hERG K channel; concentration 300 nM) | % block (hERG K channel; concentration 3000 nM) | IC50 (human CXCR3A) |
| --- | --- | --- | --- |
| CCc1nc(C)nn1CC(=O)N1CCN(c2sc(C(F)(F)F)nc2-c2cnc(C(F)(F)F)nc2)C[C@H]1C (single isomer, unassigned) [Example 47] | 5% | 18% | 3.5 nM |
| [2H]C([2H])(C(=O)N1CCN(c2sc(C(F)(F)F)nc2-c2cnc(OCC)nc2)C[C@H]1C)n1nc(C)nc1C [Example 41, 2-(3,5-Dimethyl-[1,2,4]triazol-1-yl)-1-{(R)-4-[4-(2-ethoxy-pyrimidin-5-yl)-2-trifluoromethyl-thiazol-5-yl]-2-methyl-piperazin-1-yl}-2,2-dideuterium-ethanone] |  |  | 5.6 nM |
| CCOc1ncc(-c2nc(C(F)(F)F)sc2N2CCN(C(=O)Cn3nc(CN(C)C)nc3C)[C@H](C)C2)cn1 [Example 17, 2-(3-Dimethylaminomethyl-5-methyl-[1,2,4]triazol-1-yl)-1-{(R)-4-[4-(2-ethoxy-pyrimidin-5-yl)-2-trifluoromethyl-thiazol-5-yl]-2-methyl-piperazin-1-yl}-ethanone] | 13% | 26% | 20 nM |
| COc1ccc(-c2nc(C(F)(F)F)sc2N2CCN(C(=O)Cn3nc(C)nc3C)[C@H](C)C2)cn1 [Example 16, 2-(3,5-Dimethyl-[1,2,4]triazol-1-yl)-1-{(R)-4-[4-(6-methoxy-pyridin-3-yl)-2-trifluoromethyl-thiazol-5-yl]-2-methyl-piperazin-1-yl}-ethanone] | 4% | 14% |  |
| COCCOc1ncc(-c2nc(C(F)(F)F)sc2N2CCN(C(=O)Cn3nc(C)nc3C)[C@H](C)C2)cn1 [Example 25, 2-(3,5-Dimethyl-[1,2,4]triazol-1-yl)-1-((R)-4-{4-[2-(2-methoxy-ethoxy)-pyrimidin-5-yl]-2-trifluoromethyl-thiazol-5-yl}-2-methyl-piperazin-1-yl)-ethanone] | −1% | 1% | 6.8 nM |
| Cc1ccc(-c2nc(C(F)(F)F)sc2N2CCN(C(=O)Cn3nc(C)nc3C)[C@H](C)C2)cc1 [Example 8, 2-(3,5-Dimethyl-[1,2,4]triazol-1-yl)-1-[(R)-2-methyl-4-(4-p-tolyl-2-trifluoromethyl-thiazol-5-yl)-piperazin-1-yl]-ethanone] | 22% | 61% | 28 nM |
| Cc1nc(C)n(CC(=O)N2CCN(c3sc(C(F)(F)F)nc3-c3cnc(OCCN(C)C)nc3)C[C@H]2C)n1 [Example 26, 1-((R)-4-{4-[2-(2-Dimethylamino-ethoxy)-pyrimidin-5-yl]-2-trifluoromethyl-thiazol-5-yl}-2-methyl-piperazin-1-yl)-2-(3,5-dimethyl-[1,2,4]triazol-1-yl)-ethanone] | −1% | −8% | 41 nM |
| Cc1nc(C)n(CC(=O)N2CCN(c3sc(C(F)(F)F)nc3-c3ccc4c(c3)CCCO4)C[C@H]2C)n1 [Example 21, 1-[(R)-4-(4-Chroman-6-yl-2-trifluoromethyl-thiazol-5-yl)-2-methyl-piperazin-1-yl]-2-(3,5-dimethyl-[1,2,4]triazol-1-yl)-ethanone] | 1% | 12% | 4.7 nM |
| CCOc1ccc(-c2nc(C(F)(F)F)sc2N2CCN(C(=O)Cn3nc(C)nc3C)[C@H](C)C2)cc1 [Example 31, 2-(3,5-Dimethyl-[1,2,4]triazol-1-yl)-1-{(R)-4-[4-(4-ethoxy-phenyl)-2-trifluoromethyl-thiazol-5-yl]-2-methyl-piperazin-1-yl}-ethanone] | 6% | 14% | 10 nM |
| COc1ccc(-c2nc(C(F)(F)F)sc2N2CCN(C(=O)Cn3nc(C)nc3C)[C@H](C)C2)cc1 [Example 1, 2-(3,5-Dimethyl-[1,2,4]triazol-1-yl)-1-{(R)-4-[4-(4-methoxy-phenyl)-2-trifluoromethyl-thiazol-5-yl]-2-methyl-piperazin-1-yl}-ethanone] | 4% | 13% | 111 nM |
| CCc1ncc(-c2nc(C(F)(F)F)sc2N2CCN(C(=O)Cn3nc(C)nc3C)[C@H](C)C2)cn1 [Example 43, 2-(3,5-Dimethyl-[1,2,4]triazol-1-yl)-1-{(R)-4-[4-(2-ethyl-pyrimidin-5-yl)-2-trifluoromethyl-thiazol-5-yl]-2-methyl-piperazin-1-yl}-ethanone] | 4% | 8% |  |
| Cc1nc(C)n(CC(=O)N2CCN(c3sc(C(F)(F)F)nc3-c3ccc4c(c3)OCCO4)C[C@H]2C)n1 [Example 14, 1-{(R)-4-[4-(2,3-Dihydro-benzo[1,4]dioxin-6-yl)-2-trifluoromethyl-thiazol-5-yl]-2-methyl-piperazin-1-yl}-2-(3,5-dimethyl-[1,2,4]triazol-1-yl)-ethanone] | 5% | 14% | 31 nM |
| Cc1nc(C)n(CC(=O)N2CCN(c3sc(C(F)(F)F)nc3-c3cnc(N4CCN(C)CC4)nc3)C[C@H]2C)n1 [Example 37, 2-(3,5-Dimethyl-[1,2,4]triazol-1-yl)-1-((R)-2-methyl-4-{4-[2-(4-methyl-piperazin-1-yl)-pyrimidin-5-yl]-2-trifluoromethyl-thiazol-5-yl}-piperazin-1-yl)-ethanone] | 2% | 4% | 4.8 nM |
| Cc1nc(C)n(CC(=O)N2CCN(c3sc(C(F)(F)F)nc3-c3cnc(OCC(F)(F)F)nc3)C[C@H]2C)n1 [Example 28, 2-(3,5-Dimethyl-[1,2,4]triazol-1-yl)-1-((R)-2-methyl-4-{4-[2-(2,2,2-trifluoro-ethoxy)-pyrimidin-5-yl]-2-trifluoromethyl-thiazol-5-yl}-piperazin-1-yl)-ethanone] | 0% | 6% | 2.8 nM |
| Cc1nc(C)n(CC(=O)N2CCN(c3sc(C(F)(F)F)nc3-c3ccc(OCC(F)(F)F)cc3)C[C@H]2C)n1 [Example 4, 2-(3,5-Dimethyl-[1,2,4]triazol-1-yl)-1-((R)-2-methyl-4-{4-[4-(2,2,2-trifluoro-ethoxy)-phenyl]-2-trifluoromethyl-thiazol-5-yl}-piperazin-1-yl)-ethanone] | 25% | 54% | 12 nM |
| COc1ncc(-c2nc(C(F)(F)F)sc2N2CCN(C(=O)Cn3nc(C)nc3C)[C@H](C)C2)cn1 [Example 32, 2-(3,5-Dimethyl-[1,2,4]triazol-1-yl)-1-{(R)-4-[4-(2-methoxy-pyrimidin-5-yl)-2-trifluoromethyl-thiazol-5-yl]-2-methyl-piperazin-1-yl}-ethanone] | −6% | −5% |  |
| Cc1nc(C)n(CC(=O)N2CCN(c3sc(C(F)(F)F)nc3-c3ccc(C#N)cc3)C[C@H]2C)n1 [Example 5, 4-(5-{(R)-4-[2-(3,5-Dimethyl-[1,2,4]triazol-1-yl)-acetyl]-3-methyl-piperazin-1-yl}-2-trifluoromethyl-thiazol-4-yl)-benzonitrile] |  |  | 24 nM |
| Cc1ncc(-c2nc(C(F)(F)F)sc2N2CCN(C(=O)Cn3nc(C)nc3C)[C@H](C)C2)cn1 [Example 23, 2-(3,5-Dimethyl-[1,2,4]triazol-1-yl)-1-{(R)-2-methyl-4-[4-(2-methyl-pyrimidin-5-yl)-2-trifluoromethyl-thiazol-5-yl]-piperazin-1-yl}-ethanone] | −1% | −2% |  |
